Among the data in ChEMBL document CHEMBL1145386, “Structure-based design, synthesis, and study of pyrazolo[1,5-a][1,3,5]triazine derivatives as potent inhibitors of protein kinase CK2” (Bioorg Med Chem Lett, 2007) are Ki, IC50 and Activity values, retold here.

The source made the active and inactive calls. The rule behind the calls is not given here.

The target of experiment [1] is Casein kinase II subunit alpha (Zea mays, UniProt P28523). Kind of experiment: Inhibition of corn CK2 alpha.
A further experiment deals with HCT-116. Kind of experiment: Growth inhibition of HCT116 cells by MTT assay. The class given is functional, cell-based. The following applies: Homo sapiens.
The test system of another experiment is PC-3. The experiment is described as follows: Growth inhibition of PC3 cells. The following applies: Homo sapiens.

Chain of Casein kinase II subunit alpha (P28523 whole entry): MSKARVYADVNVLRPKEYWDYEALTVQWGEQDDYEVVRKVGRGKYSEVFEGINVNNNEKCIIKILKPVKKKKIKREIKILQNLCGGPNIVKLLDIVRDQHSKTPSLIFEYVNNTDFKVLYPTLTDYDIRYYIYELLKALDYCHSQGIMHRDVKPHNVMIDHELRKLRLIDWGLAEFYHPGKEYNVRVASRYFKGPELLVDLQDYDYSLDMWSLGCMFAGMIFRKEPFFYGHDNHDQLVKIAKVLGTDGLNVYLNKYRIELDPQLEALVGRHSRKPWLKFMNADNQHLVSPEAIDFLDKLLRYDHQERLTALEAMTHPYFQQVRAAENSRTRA

`CN(c1ccccc1)c1nc(Nc2ccccc2)n2ncc(C#N)c2n1`: in experiment [1], the Ki came to 242 nM.

For the compound `CC(=O)Nc1cccc(Nc2nc(Nc3ccc(CN4CCNCC4)cc3)n3ncc(C#N)c3n2)c1`, the IC50 was determined as 1060 nM with HCT-116 and 1400 nM in the experiment with PC-3.

For the compound `CC(=O)Nc1cccc(Nc2nc(NC3CCC3)n3ncc(C#N)c3n2)c1`, the midpoint of inhibition with HCT-116, the IC50, lay at 5500 nM.

On to `CCOc1cccc(Nc2nc(Nc3cccc(NC(C)=O)c3)nc3c(C#N)cnn23)c1`, for which the values for the IC50 in the experiment on HCT-116 and with PC-3 were 1480 nM and 1200 nM, respectively.

Regarding `CCN(CC)Cc1ccc(Nc2nc(Nc3cccc(NC(C)=O)c3)nc3c(C#N)cnn23)cc1`, inhibition in the experiment with HCT-116 was half-maximal at 2200 nM (IC50).

In the experiment on HCT-116, `CCN(CC)c1cccc(Nc2nc(Nc3cccc(NC(C)=O)c3)nc3c(C#N)cnn23)c1` registered an IC50 of 2500 nM.

For `CC(=O)Nc1cccc(Nc2nc(Nc3cccc(OC(F)F)c3)n3ncc(C#N)c3n2)c1`, the IC50 in the experiment on HCT-116 was 2100 nM; in the experiment on PC-3 it was 1700 nM.

Compound `CC(=O)Nc1cccc(Nc2nc(NC3CC3)n3ncc(Br)c3n2)c1` showed an IC50 with HCT-116 of 18000 nM.

Take `CC(=O)Nc1cccc(Nc2nc(Nc3cccc(C(=O)NCCN(C)C)c3)n3ncc(C#N)c3n2)c1`: the IC50 in the experiment with HCT-116 turned out to be 39000 nM. Compared with the last compound, the IC50 is about 2.2-fold higher.

`CC(=O)Nc1cccc(Nc2nc(NC3CC3)n3ncc(C)c3n2)c1` returned an IC50 in the experiment on HCT-116 of 43000 nM.

Regarding `CC(=O)Nc1cccc(Nc2nc(Nc3cccc(C(=O)N4CCCC4)c3)n3ncc(C#N)c3n2)c1`, the values for the IC50 in the experiment with HCT-116 and in the experiment with PC-3 were 1400 nM and 780 nM, respectively.

As to `N#Cc1cnn2c(Nc3ccccc3)nc(Nc3ccccc3)nc12`, in experiment [1], the Ki worked out at 24 nM. This counts as double-digit nanomolar.

In the experiment on HCT-116, `CC(=O)Nc1cccc(Nc2nc(Nc3ccccc3)n3ncc(C#N)c3n2)c1` yielded an IC50 of 990 nM.

As to `CCN(CC)C(=O)c1cccc(Nc2nc(Nc3cccc(NC(C)=O)c3)nc3c(C#N)cnn23)c1`, the IC50 in the experiment with HCT-116 was 760 nM; in the experiment with PC-3, 610 nM.

As for `CC(=O)Nc1cccc(Nc2nc(NC3CC3)n3ncc(C#N)c3n2)c1`, the IC50 in the experiment on HCT-116 came out at 2300 nM.

For the compound `CC(=O)Nc1cccc(Nc2nc(Nc3cccc(C(=O)O)c3)n3ncc(C#N)c3n2)c1`, the outcome in the experiment on HCT-116 was inactive.

For `CC(=O)Nc1cccc(Nc2nc(Nc3ccccc3)n3ncc(C)c3n2)c1`, in the experiment on HCT-116, the IC50 worked out at 7600 nM.
